In patent US20160100586A1, “MICROBIAL AGRICULTURE” (DSM IP ASSETS B.V., priority 2013, published 2016):

Tested on: Colletotrichum gloeosporioides (CBS272.51)
Test: Agar plug bio-assay on YME agar, fungal colony radius towards Streptomyces or natamycin plug
Type: cell-based
Experimental: Three fungal plant pathogens were tested against the selected S. natalensis strains: Fusarium oxysporum f.sp. lycopersici (CBS414.90), Colletotrichum gloeosporioides (CBS272.51) and Alternaria alternata (CBS103.33). Fusarium oxysporum f.sp. lycopersici is a soil borne fungus causing yield loss in e.g. tomato crops (Fusarium Wilt). Colletotrichum gloeosporioides causes e.g. anthracnose, a plant disease recognizable by dark brown lesions on leaves and fruits. Alternaria alternata is a worldwide occurring saprophyte that can cause phytopathogenic reactions in economically important host plants. The selected S. natalensis strains were tested against these fungal plant pathogens as described below. Frozen vials (glycerol stocks) or freeze dried tubes from the selected S. natalensis strains were transferred to 100 ml baffled Erlenmeyer flasks containing 20 ml of Yeast Malt Extract broth (YME). Freeze dried tubes were resuspended in physiological saline and stored 1 hour at room temperature before they were transferred to the medium. The Erlenmeyer flasks were incubated in an incubator shaker for 3 days at 28° C. and 180 rpm. For each strain, 200 μl of liquid media was transferred to YME agar plates (90 mm petridishes containing 20 ml of media) and dispersed with the use of a sterile spreader onto the surface of the media). Subsequently, the agar plates were incubated for 4 days at 28° C. to enhance full colony coverage of the plate surface. The selected fungi were plated directly from a glycerol stock (200 μl) to YME agar and subsequently incubated for 4 days at 28° C. The bio-assay was done as follows. Overgrown Streptomyces and fungi plates made as described above were used to produce agar plugs. The plugs were made by cutting out the agar by using a sterile cork-borer (11 mm diameter) and subsequently removing it by a pre-sterilized spatula. Freshly produced non-inoculated YME agar plates were marked with a line on the back of the petridish. This line with a fixed length of 4 cm was placed in the middle of the petridish. Subsequently, a Streptomyces inoculated agar plug was transferred to the fresh YME agar plate at the left end of the line. The above-described “plug transfer” step was repeated for the respective fungi. The respective fungi plugs were placed at the right end of the line on the same YME agar plate. Each Streptomyces strain was challenged in triplicate against each fungus. For each tested fungus, a control sample was taken (in triplicate) by using a non-inoculated agar plug that was placed on the left side of the petridish. Next, the plates were placed with the plugs on top in an incubator. Subsequently, the plates were stored at 28° C. for 7 days. After 7 days the radius of the fungal colony was measured in the direction of the opposite agar plug (Streptomyces sample). This step was repeated for the control sample. The inhibition zone (in percentage) was calculated by using the following formula: 100%*(r0−r1)/r0 wherein r0 is the radius (in mm, corrected for the plug radius) of the fungal colony from the control sample and wherein r1 is the radius (in mm, corrected for the plug radius) of the fungal colony from the Streptomyces inhibited sample. Frozen vials (glycerol stocks) from the selected S. natalensis strains were transferred to 100 ml baffled Erlenmeyer flasks containing 20 ml of Yeast Malt Extract broth (YME). The Erlenmeyer flasks were incubated in an incubator shaker for 3 days at 28° C. and 180 rpm. For each strain, 200 μl of liquid media was transferred to YME agar plates and incubated for 4 days at 28° C. to enhance full colony coverage of the plate surface. Botrytis cinerea was plated directly from glycerol stock (100 μl) to YME agar and subsequently incubated for 9 days at 28° C. All other selected fungi were plated directly from a glycerol stock (200 μl) to YME agar and subsequently incubated for 4 days at 28° C. […]

C[C@@H]1C/C=C/C=C/C=C/C=C/[C@H](O[C@@H]2O[C@H](C)[C@@H](O)[C@H](N)[C@@H]2O)C[C@@H]2O[C@](O)(C[C@@H](O)C[C@H]3O[C@@H]3/C=C/C(=O)O1)C[C@H](O)[C@H]2C(=O)O [Natamycin, natamycin]
inhibition at 10 ppm (Colletotrichum gloeosporioides, CBS272, 168 h, Example 7, agar plug with 10 ppm natamycin, 5% w/w methanol, 7 days at 28° C., read-out: Average inhibition zone (in %)): 4%
inhibition at 25 ppm (Colletotrichum gloeosporioides, CBS272, 168 h, Example 7, agar plug with 25 ppm natamycin, 5% w/w methanol, 7 days at 28° C., read-out: Average inhibition zone (in %)): 7%
inhibition at 50 ppm (Colletotrichum gloeosporioides, CBS272, 168 h, Example 7, agar plug with 50 ppm natamycin, 5% w/w methanol, 7 days at 28° C., read-out: Average inhibition zone (in %)): 15%
inhibition at 75 ppm (Colletotrichum gloeosporioides, CBS272, 168 h, Example 7, agar plug with 75 ppm natamycin, 5% w/w methanol, 7 days at 28° C., read-out: Average inhibition zone (in %)): 18%
inhibition at 100 ppm (Colletotrichum gloeosporioides, CBS272, 168 h, Example 7, agar plug with 100 ppm natamycin, 5% w/w methanol, 7 days at 28° C., read-out: Average inhibition zone (in %)): 21%
inhibition at 175 ppm (Colletotrichum gloeosporioides, CBS272, 168 h, Example 7, agar plug with 175 ppm natamycin, 5% w/w methanol, 7 days at 28° C., read-out: Average inhibition zone (in %)): 25%
inhibition at 250 ppm (Colletotrichum gloeosporioides, CBS272, 168 h, Example 7, agar plug with 250 ppm natamycin, 5% w/w methanol, 7 days at 28° C., read-out: Average inhibition zone (in %)): 28%
inhibition at 375 ppm (Colletotrichum gloeosporioides, CBS272, 168 h, Example 7, agar plug with 375 ppm natamycin, 5% w/w methanol, 7 days at 28° C., read-out: Average inhibition zone (in %)): 35%
inhibition at 500 ppm (Colletotrichum gloeosporioides, CBS272, 168 h, Example 7, agar plug with 500 ppm natamycin, 5% w/w methanol, 7 days at 28° C., read-out: Average inhibition zone (in %)): 41%
natamycin concentration in agar plug giving similar inhibition zone as the S. natalensis ATCC-27448 agar plug (Example 7, 7 days at 28° C.): approximately 375 ppm
Fungal radius (in mm) (Example 7, agar plug with 10 ppm natamycin, 5% w/w methanol, 7 days at 28° C.): 44.3 mm
Fungal radius (in mm) (Example 7, agar plug with 25 ppm natamycin, 5% w/w methanol, 7 days at 28° C.): 43.2 mm
Fungal radius (in mm) (Example 7, agar plug with 50 ppm natamycin, 5% w/w methanol, 7 days at 28° C.): 39.3 mm
Fungal radius (in mm) (Example 7, agar plug with 75 ppm natamycin, 5% w/w methanol, 7 days at 28° C.): 37.8 mm
Fungal radius (in mm) (Example 7, agar plug with 100 ppm natamycin, 5% w/w methanol, 7 days at 28° C.): 36.7 mm
Fungal radius (in mm) (Example 7, agar plug with 175 ppm natamycin, 5% w/w methanol, 7 days at 28° C.): 34.8 mm
Fungal radius (in mm) (Example 7, agar plug with 250 ppm natamycin, 5% w/w methanol, 7 days at 28° C.): 33.2 mm
Fungal radius (in mm) (Example 7, agar plug with 375 ppm natamycin, 5% w/w methanol, 7 days at 28° C.): 30.3 mm
Fungal radius (in mm) (Example 7, agar plug with 500 ppm natamycin, 5% w/w methanol, 7 days at 28° C.): 27.3 mm
